According to publication PMC9814250, “Single step syntheses of (1S)-aryl-tetrahydroisoquinolines by norcoclaurine synthases” (Communications Chemistry, 2020):

What was measured:
MxSafC [1] = biological target: T1, MxSafC (Myxococcus xanthus, UniProt Q50859); assay: HPLC, O-methylation to C6-OMe-7a; type: biochemical; conditions: SAM generated in situ (EcMAT, EcMTAN), Mg2+, pH 7.5, 37 °C, 24 h; selective for (S)
T1 construct: gene safC; recombinant in E. coli BL21(DE3), His-trap purified

RnCOMT [2] = biological target: T2, RnCOMT (Rattus norvegicus, UniProt P22734); assay: HPLC, O-methylation to C6-OMe product; conditions: SAM generated in situ (EcMAT, EcMTAN), Mg2+, pH 7.5, 37 °C, 24 h; not enantioselective
T2 construct: gene Comt; recombinant in E. coli BL21(DE3), used as lysate
T2 sequence (P22734 1-264): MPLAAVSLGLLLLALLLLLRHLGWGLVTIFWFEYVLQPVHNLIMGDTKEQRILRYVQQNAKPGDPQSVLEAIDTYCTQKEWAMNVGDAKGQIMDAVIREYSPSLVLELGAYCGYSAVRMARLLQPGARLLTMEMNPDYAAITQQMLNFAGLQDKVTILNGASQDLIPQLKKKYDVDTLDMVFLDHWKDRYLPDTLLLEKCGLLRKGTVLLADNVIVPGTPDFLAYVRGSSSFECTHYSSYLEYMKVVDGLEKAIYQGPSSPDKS

RnCOMT [3] = biological target: T2, RnCOMT; assay: HPLC, O-methylation to C6/C7-OMe-7b; conditions: SAM generated in situ (EcMAT, EcMTAN), Mg2+, pH 7.5, 37 °C, 24 h; not enantioselective
MxSafC [4] = biological target: T1, MxSafC; assay: HPLC, O-methylation to C6-OMe-7b; type: biochemical; conditions: SAM generated in situ (EcMAT, EcMTAN), Mg2+, pH 7.5, 37 °C, 24 h; selective for (S)

Structure (SMILES)	HPLC, O-methylation to C6-OMe-7a (MxSafC [1])	HPLC, O-methylation to C6-OMe product (RnCOMT [2])	HPLC, O-methylation to C6/C7-OMe-7b (RnCOMT [3])	HPLC, O-methylation to C6-OMe-7b (MxSafC [4])
Oc1cc2c(cc1O)[C@H](C1CCCCC1)NCC2 [5a, (S)-5a]	MxSafC was found to be selective towards both (S)-5a and (S)-5b	using 5a as the substrate, gave remarkable regioselectivity	–	–
Oc1cc2c(cc1O)[C@H](c1ccccc1)NCC2 [5b, (S)-5b]	–	–	C6:C7-OMe-7b was observed by ^1H-NMR when 5b was used as the substrate	MxSafC was found to be selective towards both (S)-5a and (S)-5b
